# Test results from PMC6534582 (Nature Communications, 2019).
# No end group written: not given here.
# B1: histone H4K16ac peptide, residues 11–21 (peptide, UniProt P62805 12-22, looked up)
# peptide: GKGGAK(Ac)RHRKV
# notes: histone H4, residues 11-21, acetylated at K16; a 15N/13C-labelled copy (Bio-Synthesis) was used to validate assignments; in the structure calculation only G13GAKacRH18 was used, with N-terminal acetyl and C-terminal N-Me amide caps; also called H4K16ac (11–21) peptide; source: synthetic peptide
# B2: H4 (residues 11–23) part of the linked H4-G7-MLL4-PHD6 construct, wild type (domain or fragment, UniProt P62805 12-24, looked up)
# chain: GKGGAKRHRKVLR
# notes: histone H4, residues 11-23; in the assay this stretch stood on ONE chain with m16: H4 11-23, hepta-glycine linker GGGGGGG, MLL4-PHD6; cloned into pDEST-15; also called H4_(11–23)-G7-PHD6 (H4 part); linked H4-MLL4-PHD6 construct; source: E. coli Rosetta2 (DE3) pLysS, purified
# B3: H4 (residues 11–23) K12A part of the linked H4-G7-MLL4-PHD6 construct (domain or fragment, UniProt P62805 12-24, looked up)
# chain: GAGGAKRHRKVLR
# notes: histone H4, residues 11-23, K12A; on one chain with m16 through a GGGGGGG linker; also called H4K12 to alanine in the linked construct; source: E. coli Rosetta2 (DE3) pLysS, purified as WT protein
# B4: histone H4 peptide, residues 12–23 (peptide, UniProt P62805 13-24, looked up)
# peptide: KGGAKRHRKVLR
# notes: histone H4, residues 12-23; also called H4_(12–23); source: synthetic peptide (SynPeptide)
# B5: histone H4 peptide, residues 8–25 (peptide, UniProt P62805 9-26, looked up)
# peptide: KGLGKGGAKRHRKVLRDN
# notes: histone H4, residues 8-25; source: synthetic peptide (SynPeptide)
# B6: histone H4K16ac (11-21) peptide (peptide, UniProt P62805 12-22, looked up)
# peptide: GKGGAK(Ac)RHRKV
# notes: histone H4, residues 11-21, acetylated at K16; source: synthetic peptide
# B7: histone H4 (8-25) peptide (peptide, UniProt P62805 9-26, looked up)
# peptide: KGLGKGGAKRHRKVLRDN
# notes: histone H4, residues 8-25, unmodified; source: synthetic peptide (SynPeptide)
# What was measured:
# [1] = system: Jmjd3 mRNA in Mof^f/f;Cre-ER brown preadipocytes; assay: qRT-PCR of Jmjd3 mRNA (control gene); type: cell-based, mouse
# Description: (§1) Mof^f/f mice were crossed with Cre-ER (Jackson no. 008463) to generate Mof^f/f;Cre-ER mice[10]. Primary brown preadipocytes were isolated from interscapular brown adipose tissue of newborn (P0) Mof^f/f;Cre-ER pups and immortalized by SV40T[38]. All mouse experiments were performed in accordance with the NIH Guide for the Care and Use of Laboratory Animals and approved by the Animal Care and Use Committee of NIDDK, NIH. For rescue experiment by ectopic expression of rat MOF, immortalized Mof^f/f;Cre-ER preadipocytes stably expressing WT or K274R MOF were established using lentivirus-mediated gene transfer. Briefly, 293FT lentiviral packaging cells were transfected with pLenti-CMV plasmids expressing MYC-tagged WT or K274R rat MOF. Preadipocytes were infected with those lentivirus-containing media, followed by puromycin selection for two passages. Those expressing MYC-tagged rat MOF were confirmed by western blot.
# (§2) Western blot of histone modifications using acid extracts or of nuclear proteins using nuclear extracts were done as described[45],[46]. Total RNA was extracted using TRIzol (Invitrogen) and reverse transcribed using the ProtoScript II First-Strand cDNA Synthesis Kit (NEB), following the manufacturers’ instructions. qRT-PCR was done using the following SYBR green primers: Mof (forward, 5’–[…]–3’, and reverse, 5’–[…]–3’). qPCR was done using Luna® Universal qPCR Master Mix according to the manufacturers’ instructions (NEB). To detect truncated Mof transcripts after 4-OHT treatment (2 µM), RT-PCR was performed as described.
# [2] = system: Mof mRNA in Mof^f/f;Cre-ER brown preadipocytes; assay: qRT-PCR of Mof mRNA; type: cell-based, mouse
# Description: as §1, §2
# [3] = system: Mof^f/f;Cre-ER brown preadipocytes; assay: Growth rate of Mof KO cells; type: cell-based, mouse; conditions: for growth rate of Mof KO cells: 4OHT
# Description: as §1
# [4] = system: MLL4-PHD6 (aa 1503–1562), wild-type; assay: 1H,15N HSQC NMR titration of WT MLL4-PHD6; type: binding, human; conditions: for chemical shift perturbations (CSPs): 1H,15N HSQC titration, 0.15 mM 15N-labeled MLL4-PHD6, PBS pH 6.5, 298 K
# Description: (§3) The PHD6 domain of human MLL4 (aa 1503–1562) was cloned into a pCool vector. […] The human MLL3 PHD7 domain (aa 1083–1143) was cloned into a pGEX-6p vector. All constructs were expressed in Rosetta2 (DE3) pLysS cells. Protein production was induced with 0.5 mM IPTG overnight at 16̊ °C in Luria broth (LB) or minimal media (M9) supplemented with ^15NH4Cl and 0.06 mM ZnCl2 or ^15NH4Cl, ^13C-glucose, and 0.06 mM ZnCl2. The GST-tagged PHD proteins were purified on glutathione Sepharose 4B beads (GE Healthcare) in 50 mM Tris-HCl (pH 7.5) buffer, supplemented with 250 mM NaCl and 2 mM dithiothreitol (DTT). The GST tag was cleaved with Thrombin or TEV protease overnight at 4 °̊C. Unlabeled proteins were further purified by size exclusion chromatography and concentrated in Millipore concentrators. All mutants were generated by site-directed mutagenesis using the Stratagene QuikChange mutagenesis protocol, grown, and purified as WT proteins.
# NMR samples for structure determination were prepared in 20 mM Tris-HCl (pH 7.0) buffer, supplemented with 100 mM NaCl, 5 mM DTT, and 8% D2O. […] 3D ^15N-/^13C-filtered ^13C- and ^15N-edited NOESY-HSQC spectra (mixing time of 150 ms) were collected to obtain intermolecular distance restraints.
# (§4) For NMR titration experiments, ^1H,^15N HSQC spectra of 0.15 mM uniformly ^15N-labeled WT or mutated MLL4-PHD6 were recorded while peptides (synthesized by SynPeptide) were added stepwise. All experiments were carried out in phosphate-buffered saline buffer (pH 6.5).
# MLL4-PHD6 = assay: 1H,15N HSQC of linked H4-G7-MLL4-PHD6 construct; type: binding, human
# Description: as §3, §4
# [5] = target: T1, PHD6 finger of MLL4 (MLL4-PHD6, aa 1503–1562), wild type (human, UniProt O14686 1503-1562); assay: NMR structure; solution structure; 2.5 mM 13C/15N-labeled MLL4-PHD6 and 7.5 mM H4K16ac (11–21) peptide; 20 mM Tris-HCl pH 7.0, 100 mM NaCl, 5 mM DTT, 8% D2O; 298 K; conditions: both partners purified
# T1 construct: human MLL4 (KMT2D), PHD6 finger, aa 1503-1562; cloned into a pCool vector; 15N- or 13C/15N-labelled for NMR; also called MLL4-PHD6_(1503–1562); PHD6 domain of human MLL4; source: E. coli Rosetta2 (DE3) pLysS, purified (glutathione Sepharose, GST cleaved, SEC for unlabeled protein)
# [6] = target: T2, MLL4-PHD6 part of the linked H4-G7-MLL4-PHD6 construct (human, UniProt O14686 1503-1562); assay: NMR, 1H,15N HSQC spectra of a linked construct compared with free and peptide-bound PHD6; H4 (11–23) joined to MLL4-PHD6 on one chain through a hepta-glycine linker; wild type and H4 mutants; conditions: both partners purified
# T2 construct: human MLL4 (KMT2D), PHD6 finger; aa 1503-1562 by the methods, 1503-1560 by the results; in the assay joined at its N-terminus through GGGGGGG to H4 residues 11-23 (m15 or its mutants) on one chain; also called H4_(11–23)-G7-PHD6 (PHD6 part); source: E. coli Rosetta2 (DE3) pLysS, purified
# [7] = target: T1, PHD6 finger of MLL4 (MLL4-PHD6, aa …); assay: NMR titration; 1H,15N HSQC of 0.15 mM uniformly 15N-labeled PHD finger (WT or mutated), peptides added stepwise; phosphate-buffered saline pH 6.5; 298 K; conditions: both partners purified
# [8] = target: T3, PHD6 finger of human MLL4 (aa 1503-1562) (human, UniProt O14686 1503-1562); assay: NMR titration; 1H,15N HSQC spectra of 2.5 mM 13C/15N-labelled MLL4-PHD6 upon titration with H4K16ac (11-21) peptide at protein:ligand 1:0, 1:2, 1:3; 20 mM Tris-HCl pH 7.0, 100 mM NaCl, 5 mM DTT, 8% D2O; 298 K; conditions: both partners purified
# T3 construct: PHD6 finger of human MLL4 (KMT2D), aa 1503-1562, cloned into a pCool vector; Uniformly 15N-labelled for the titrations at 0.15 mM; also called MLL4-PHD6; MLL4-PHD6 1503-1562; source: Rosetta2 (DE3) pLysS cells, purified (glutathione Sepharose 4B; GST tag cleaved)
# [9] = target: T3, PHD6 finger of human MLL4 (aa 1503-1562); assay: NMR titration; 1H,15N HSQC spectra of 0.15 mM uniformly 15N-labelled MLL4-PHD6 while peptide was added stepwise up to a protein:peptide molar ratio of 1:5; phosphate-buffered saline pH 6.5; 298 K; conditions: both partners purified
# [10] = 4OHT-treated, technical replicate 1
# [11] = 4OHT-treated, technical replicate 2
# [12] = after two rounds of 4OHT treatment
# T1 sequence (O14686 1503-1562): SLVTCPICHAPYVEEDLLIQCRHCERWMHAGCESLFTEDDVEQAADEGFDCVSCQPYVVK
# T3 sequence (O14686 1503-1562): as above
# T2 sequence (O14686 1503-1562): as above
molecule,measurement,setting,value
"CC/C(=C(\c1ccc(O)cc1)c1ccc(OCCN(C)C)cc1)c1ccccc1 [4OHT, 4-hydroxytamoxifen]",relative Jmjd3 mRNA level,"[1]; 4OHT-treated Mof^f/f;Cre-ER preadipocytes, average of two technical replicates, Mock average 1.00005, STDEV in own column",0.8326
same,relative Jmjd3 mRNA level,[1]; [10],0.841
same,relative Jmjd3 mRNA level,[1]; [11],0.8241
same,mRNA of control gene Jmjd3,[1]; [12],unaffected
same,relative Mof mRNA level,"[2]; 4OHT-treated Mof^f/f;Cre-ER preadipocytes, average of two technical replicates, single experiment, Mock average 1.00268, STDEV in own column",0.1967
same,relative Mof mRNA level,[2]; [10],0.2148
same,relative Mof mRNA level,[2]; [11],0.1786
same,mRNA level of Mof,[2]; [12],significantly decreased
same,growth rate of Mof KO cells,"[3]; D1, average of two replicates (D0 = 1; Mock 3.715)",2.81
same,growth rate of Mof KO cells,"[3]; D1, replicate 1 (Mock 3.89)",2.98
same,growth rate of Mof KO cells,"[3]; D1, replicate 2 (Mock 3.54)",2.64
same,growth rate of Mof KO cells,"[3]; D2, average of two replicates (D0 = 1; Mock 6.365)",4.725
same,growth rate of Mof KO cells,"[3]; D2, replicate 1 (Mock 5.82)",4.59
same,growth rate of Mof KO cells,"[3]; D2, replicate 2 (Mock 6.91)",4.86
same,growth rate of Mof KO cells,"[3]; D3, average of two replicates (D0 = 1; Mock 10.695)",7.02
same,growth rate of Mof KO cells,"[3]; D3, replicate 1 (Mock 9.81)",6.59
same,growth rate of Mof KO cells,"[3]; D3, replicate 2 (Mock 11.58)",7.45
same,growth rate of Mof KO cells,"[3]; D4, average of two replicates (D0 = 1; Mock 17.965)",12
same,growth rate of Mof KO cells,"[3]; D4, replicate 1 (Mock 16.98)",12.54
same,growth rate of Mof KO cells,"[3]; D4, replicate 2 (Mock 18.95)",11.46
same,growth rate of Mof KO cells,"[3]; D5, average of two replicates (D0 = 1; Mock 25.18)",15.215
same,growth rate of Mof KO cells,"[3]; D5, replicate 1 (Mock 26.41)",14.49
same,growth rate of Mof KO cells,"[3]; D5, replicate 2 (Mock 23.95)",15.94
same,"growth, 4OHT average relative to Mock",[3]; D4,66.7965
same,"growth, 4OHT average relative to Mock",[3]; D5,60.4249
CC(=O)NCCCC[C@H](N)C(=O)O [Kac],chemical shift perturbations (CSPs),[4],failed to induce CSPs
H4K16ac (11–21): H4K16ac peptide (residues 11–21) used for NMR structure; 15N/13C-labeled form synthesized by Bio-Synthesis,saturation of MLL4-PHD6 by 3-fold excess of peptide,"[4]; 7.5 mM H4K16ac (11–21) with 2.5 mM 13C/15N-labeled MLL4-PHD6, 20 mM Tris-HCl pH 7.0, 100 mM NaCl, 5 mM DTT, 8% D2O, 298 K, 1H,15N HSQC and 1H,13C HSQC",almost saturated
H4_1–9: H4 peptide (residues 1–9 of H4) (SGRGKGGKG),chemical shift perturbations (CSPs),[4],no chemical shift perturbations
H4_8–25: peptide encompassing residues 8–25 of H4 (KGLGKGGAKRHRKVLRDN),chemical shift perturbations (CSPs),[4],CSPs similar in directions to CSPs induced by the longer H4_1–23 peptide
H4_12–23: peptide encompassing residues 12–23 of H4 (KGGAKRHRKVLR),chemical shift perturbations (CSPs),[4],CSPs similar in directions to CSPs induced by the longer H4_1–23 peptide
"linked H4-MLL4-PHD6 construct: aa 11–23 of H4, hepta-glycine (GGGGGGG) linker, aa 1503–1562 of MLL4-PHD6",spectral changes on mutation,MLL4-PHD6; H4K12 mutated to alanine in linked construct,only small spectral changes
same,spectral changes on mutation,MLL4-PHD6; H4K23 mutated to alanine in linked construct,only small spectral changes
same,binding of the H4 region in linked construct,"MLL4-PHD6; H4 aa 11–23, hepta-glycine linker, MLL4-PHD6, no mutation",tightly bound to the protein
same,complex formation on mutation,MLL4-PHD6; K16 and R17 of H4 mutated to alanine in linked construct,disrupted formation of the complex
B1,binding result,[5],binds
B2,binding result,[6],binds
B3,binding result,[6],binds
B4,binding result,[7],binds
B5,binding result,[7],binds
B6,binding result,[8],binds
B7,binding result,[9],binds
